Drawing on PubChem BioAssay (NCI), this text covers TGI and GI50 for 15 molecules.

Some test systems named below: A498 renal; HCT-116 colon; HL-60(TB) leukemia; KM12 colon; KM20L2 colon; NCI-H522 lung; SF-268 CNS; SNB-19 CNS; DLD-1 colon; PC-3 prostate.
Holding throughout (assay): NCI anticancer screen, dose series, 48 h

SMILES strings stand for the structures. Values joined by “and” are separate entries in the source; they are usually repeats but may differ in a detail not shown here. Equal values may be shown once.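 Five compound concentrations were applied to cells in 96-well plates for 48 hours; endpoints were derived by simple linear interpolation of the resulting dose-response curve. Here, GI50 denotes the concentration required for 50% inhibition of growth. The concentration for full growth arrest is given as TGI.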

As to `Cn1cc(-c2ccc3c4ccccc4n(C)c3c2)c2ccccc21`, the TGI in the experiment with A498 renal, in the experiment with HCT-116 colon, in the experiment on HL-60(TB) leukemia, in the experiment on KM12 colon, in the experiment with KM20L2 colon and in the experiment with NCI-H522 lung was over 100 µM each time. The TGI in the experiment with SF-268 CNS and in the experiment with SNB-19 CNS was over 100 µM throughout.

For the molecule `NC(CSC(c1ccccc1)(c1ccccc1)c1ccccc1)C(=O)O` (configuration not stated), the GI50 is 0.493 µM in the experiment with A498 renal; 0.831 µM with DLD-1 colon; 0.512 µM and 0.425 µM in the experiment on HCT-116 colon; 2.54 µM and 2.11 µM in the experiment with HL-60(TB) leukemia; 5.15 µM and 2.35 µM in the experiment with KM12 colon; 0.524 µM and 0.413 µM in the experiment on NCI-H522 lung. Besides, the GI50 with PC-3 prostate is 2.43 µM; in the experiment with SF-268 CNS, 4.35 µM and 1.71 µM; in the experiment on SNB-19 CNS, 2.26 µM and 5.8 µM. Also, the TGI in the experiment on A498 renal was 51.9 µM and 43 µM; in the experiment with DLD-1 colon, 125 µM; in the experiment with HCT-116 colon, 55.3 µM and 64.2 µM and > 100 µM; in the experiment on HL-60(TB) leukemia, 5.93 µM and 1.53 µM and 8.62 µM; in the experiment on KM12 colon, 96.3 µM and 24 µM; in the experiment with KM20L2 colon, 5.47 µM. Moreover, the TGI in the experiment on NCI-H522 lung was 2.2 µM and 7.13 µM and 4.28 µM; with PC-3 prostate, 12.1 µM and > 100 µM; with SF-268 CNS, 63.3 µM and 85.7 µM; in the experiment with SNB-19 CNS, 63.9 µM and > 100 µM.

Turning to `N.N.N.N.N#N.N#N.[Cl-].[Os+6]`, the GI50 with DLD-1 colon, in the experiment with HCT-116 colon, in the experiment with KM12 colon, with KM20L2 colon, in the experiment with NCI-H522 lung and in the experiment with SF-268 CNS was over 100 µM each time. Moreover, in the experiment on SNB-19 CNS, the GI50 was over 100 µM. The TGI with DLD-1 colon, in the experiment on HCT-116 colon, in the experiment on KM12 colon, with KM20L2 colon, in the experiment with NCI-H522 lung and in the experiment with SF-268 CNS was over 100 µM throughout. In the experiment on SNB-19 CNS, the TGI is over 100 µM.

For the molecule `S=C1SCC2CCCN12` (configuration not stated), the TGI in the experiment on A498 renal, in the experiment on DLD-1 colon, with HCT-116 colon, in the experiment with HL-60(TB) leukemia, in the experiment with KM12 colon and with KM20L2 colon was over 100 µM throughout. The TGI in the experiment on NCI-H522 lung, in the experiment on SF-268 CNS and in the experiment on SNB-19 CNS was over 100 µM each time.

As to `Cc1cccc(NC(=O)c2c(N)[n+]([O-])c3ccccc3[n+]2[O-])c1`, the TGI with A498 renal turned out to be 29.8 µM; in the experiment on DLD-1 colon it was 26 µM; in the experiment with HCT-116 colon, 20.3 µM; in the experiment with HL-60(TB) leukemia, 56.7 µM; with KM12 colon it was 30.3 µM; in the experiment with KM20L2 colon it was 30.5 µM. Moreover, the TGI in the experiment with NCI-H522 lung turned out to be 20 µM; with SF-268 CNS it was 22.8 µM; in the experiment with SNB-19 CNS it was 29.3 µM.

As for `Cc1cc(NS(=O)(=O)c2ccc(NC(=O)c3ccc(Cl)c4c(Nc5ccc(S(=O)(=O)Nc6cc(C)on6)cc5)c5ccccc5nc34)cc2)no1`, the TGI is 47.4 µM with A498 renal; 27.4 µM in the experiment with HCT-116 colon; 49.5 µM with HL-60(TB) leukemia; 44.3 µM with KM12 colon; 40 µM with KM20L2 colon; 33.2 µM with NCI-H522 lung. Further, the TGI with SF-268 CNS was 42.3 µM; in the experiment on SNB-19 CNS, 32.4 µM.

For `O=C(n1c2ccccc2c2n[nH]c(=S)nc21)C(F)(F)F`, the TGI in the experiment on DLD-1 colon, with HCT-116 colon, in the experiment on KM12 colon, in the experiment on NCI-H522 lung, with SF-268 CNS and in the experiment with SNB-19 CNS was over 100 µM each time.

In the case of `CCCCC[C@@H]1CCCC2NC(CCCCCO[Si](c3ccccc3)(c3ccccc3)C(C)(C)C)CCC21` (some centres not stated), the TGI in the experiment on A498 renal was found to be 31.9 µM; with DLD-1 colon it was 28.1 µM; in the experiment on HCT-116 colon it was 23.7 µM; in the experiment on HL-60(TB) leukemia it was 23 µM; with KM12 colon, 25.4 µM; in the experiment with KM20L2 colon, 23.8 µM. In addition, the results for the TGI in the experiment with NCI-H522 lung, with SF-268 CNS and with SNB-19 CNS were 31.6 µM, 38.2 µM and 32.7 µM, respectively.

Consider `CC1(Cl)C(=O)NC(=O)N([C@H]2C[C@H](O)[C@@H](CO)O2)C1N=[N+]=[N-]` (some centres not stated), for which the TGI with A498 renal, in the experiment on DLD-1 colon, with HCT-116 colon, in the experiment with HL-60(TB) leukemia, in the experiment with KM12 colon and in the experiment on KM20L2 colon was over 100 µM throughout. Moreover, the TGI in the experiment on NCI-H522 lung, in the experiment with SF-268 CNS and in the experiment with SNB-19 CNS was over 100 µM each time.

Regarding `CCOC(=O)c1ccc(N=Cc2ccc(N(CCC#N)S(=O)(=O)c3ccccc3)cc2C)cc1`, the TGI with A498 renal, in the experiment with DLD-1 colon, in the experiment with HCT-116 colon, in the experiment with HL-60(TB) leukemia, with KM12 colon and in the experiment on KM20L2 colon was over 100 µM throughout. In addition, the TGI in the experiment on NCI-H522 lung, in the experiment on SF-268 CNS and in the experiment on SNB-19 CNS was over 100 µM each time.

Take `COc1ccc2c(c1OC)C(=O)C2`: the TGI in the experiment on HCT-116 colon, with HL-60(TB) leukemia, in the experiment on KM12 colon, in the experiment with KM20L2 colon, in the experiment with NCI-H522 lung and in the experiment on SF-268 CNS was over 100 µM each time. In the experiment with SNB-19 CNS, this molecule registered a TGI of over 100 µM.

As for `CC(=O)/C=C1\CC(=O)N(C)c2ccccc2N1`, the TGI in the experiment on DLD-1 colon was 22.9 µM; with HCT-116 colon, over 100 µM; in the experiment with KM12 colon, over 100 µM; in the experiment with NCI-H522 lung it was over 100 µM; with SF-268 CNS, over 100 µM; with SNB-19 CNS, over 100 µM.

For the molecule `CN(C)CCCNc1ccnc2c([N+](=O)[O-])cccc12`, the TGI in the experiment on HCT-116 colon was 39.1 µM; with KM12 colon, over 100 µM; in the experiment with KM20L2 colon, 16.7 µM; in the experiment with NCI-H522 lung it was 38.2 µM; in the experiment with SF-268 CNS, 67.4 µM; in the experiment with SNB-19 CNS, 54.5 µM.

With `C=CC[P@]1(=O)O[C@H](c2ccccc2)C(C)N1C(C)C` (some centres not stated), the TGI with A498 renal, in the experiment with DLD-1 colon, in the experiment with HCT-116 colon, with HL-60(TB) leukemia, in the experiment on KM12 colon and in the experiment on KM20L2 colon was over 100 µM throughout. Moreover, the TGI in the experiment with NCI-H522 lung, in the experiment with SF-268 CNS and with SNB-19 CNS was over 100 µM each time.

With `COc1ccc2c(=O)c(-c3cc(OC)c(OC)cc3OC)coc2c1`, the TGI in the experiment on A498 renal is over 100 µM; with DLD-1 colon it was over 100 µM; in the experiment with HCT-116 colon, over 100 µM; in the experiment on HL-60(TB) leukemia it was 2.92 µM; in the experiment on KM12 colon, over 100 µM; in the experiment on NCI-H522 lung, 5.44 µM. Besides, the TGI in the experiment with PC-3 prostate, in the experiment on SF-268 CNS and in the experiment on SNB-19 CNS was over 100 µM each time.
